Data as given in ChEMBL document CHEMBL3616380, “Photocytotoxicity, cellular uptake and subcellular localization of amidinophenylporphyrins as potential photodynamic therapeutic agents: An in vitro cell study” (Bioorg Med Chem Lett, 2015).

Key:
[1] = Drug uptake in mitochondria of human HK1 cells at 8 uM after 24 hrs by confocal microscopy analysis; assay type: ADME; details: hk1, 24 h
[2] = Cellular uptake in human HK1 cells assessed per 10^6 cells at 8 uM after 1 to 24 hrs by flow cytometry; assay type: ADME, cell-based; details: hk1, 8 µM
[3] = Dark cytotoxicity against human HK1 cells assessed as cell viability at 1 to 8 uM after 24 hrs by MTT reduction assay; assay type: cell-based; details: hk1, 24 h
[4] = Photocytotoxicity against human HK1 cells assessed as cell viability at 4 uM measured 24 hrs post 12 J/cm'2 irradiation by MTT reduction assay; assay type: functional; details: HK-1, light or radiation study, read-out: Activity
[5] = Photocytotoxicity against human HK1 cells assessed as cell viability at 8 uM measured 24 hrs post 4 J/cm'2 irradiation by MTT reduction assay; assay type: functional; details: HK-1, light or radiation study, read-out: Activity
[6] = Drug uptake in lysosomes of human HK1 cells at 8 uM after 24 hrs by confocal microscopy analysis; assay type: ADME, cell-based, Lysosome; details: hk1, 24 h

| Drug uptake [2] | Drug uptake [6] | SMILES | Drug uptake [1] | Activity [3] | viability at 4 µM [4] | viability at 8 µM [5] |
| --- | --- | --- | --- | --- | --- | --- |
| Active | Active | N=C(N)c1ccc(-c2c3nc(c(-c4ccc(C(=N)N)cc4)c4ccc([nH]4)c(-c4ccc(C(=N)N)cc4)c4nc(c(-c5ccc(C(=N)N)cc5)c5ccc2[nH]5)C=C4)C=C3)cc1 |  | Non-toxic | 90% | 50% |
| Active | Active | N=C(N)c1ccc(-c2c3nc(c(-c4ccc(C(=N)N)cc4)c4ccc([nH]4)c(-c4ccc(C(=N)N)cc4)c4nc(c(-c5ccc(OCCCOc6ccc(-c7c8nc(c(-c9ccccc9)c9ccc([nH]9)c(-c9ccccc9)c9nc(c(-c%10ccccc%10)c%10ccc7[nH]%10)C=C9)C=C8)cc6)cc5)c5ccc2[nH]5)C=C4)C=C3)cc1 |  | Non-toxic | 20% |  |

| SMILES | Drug uptake [2] | Drug uptake [6] | Drug uptake [1] | Activity [3] | viability at 4 µM [4] | viability at 8 µM [5] |
| --- | --- | --- | --- | --- | --- | --- |
| C[n+]1ccc(-c2c3nc(c(-c4cc[n+](C)cc4)c4ccc([nH]4)c(-c4cc[n+](C)cc4)c4ccc([nH]4)c(-c4cc[n+](C)cc4)c4nc2C=C4)C=C3)cc1 [TMPYP4] | Active |  | Active | Non-toxic | 58% |  |
